Laboratory results taken from US9440982B2 (Eolas Therapeutics, Inc., priority 2012, dated 2016).

Target: T1, OX1 (Homo sapiens, UniProt O43613)
T1 construct: expressed in transfected cells; host or cells: CHO (CHO-OX1, kept under selection antibiotic)
T1 sequence (O43613 1-425): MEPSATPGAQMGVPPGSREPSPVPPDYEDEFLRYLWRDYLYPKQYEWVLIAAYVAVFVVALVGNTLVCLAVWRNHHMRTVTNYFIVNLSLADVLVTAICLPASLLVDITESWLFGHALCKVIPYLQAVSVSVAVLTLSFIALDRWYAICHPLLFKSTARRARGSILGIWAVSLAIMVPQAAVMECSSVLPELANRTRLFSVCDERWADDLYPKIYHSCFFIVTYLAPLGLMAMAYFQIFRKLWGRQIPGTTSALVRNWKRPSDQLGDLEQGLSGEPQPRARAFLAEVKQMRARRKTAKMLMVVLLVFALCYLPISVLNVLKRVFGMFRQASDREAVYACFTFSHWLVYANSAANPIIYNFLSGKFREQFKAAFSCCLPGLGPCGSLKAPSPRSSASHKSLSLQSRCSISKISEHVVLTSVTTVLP
Assay: Orexin receptor cell-based functional assay, [Ca2+]i by FLIPR, CHO-OX1 cells
Settings: CHO-OX1 cells, [Ca2+]i by FLIPR, antagonist dose-range 0.1 nM-10 μM, EC90 of OXA; read-out: OX1
How it was run: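 CHO cells expressing human OX1 or OX2 loaded with calcium dye plus 2.5 mM probenecid at 37° C (calcium4, 30 min, or calcium6, 2 h), then exposed to compounds (0.1 nM-10 μM) for 30 min. Intracellular Ca2+ measured on FLIPR; antagonist format.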

| SMILES | IC50 [nM] |
| --- | --- |
| Cc1nc(C(=O)N2CCC[C@H](C)[C@H]2CNc2ccc(C(F)(F)F)cn2)c(-c2ccc(F)cc2)s1 (racemic) [Example A65, rac-trans-(5-(4-Fluorophenyl)-2-methylthiazol-4-yl)(3-methyl-2-(((5-(trifluoromethyl)pyridin-2-yl)amino)methyl)piperidin-1-yl)methanone] | 7 |
| Cc1ccc(-c2cnn(C)c2)c(C(=O)N2CC3CCCC3C2CNc2ccc(C(F)(F)F)cn2)c1 (stereo not drawn) [Example A71, (5-Methyl-2-(1-methyl-1H-pyrazol-4-yl)phenyl)(1-(((5-(trifluoromethyl)pyridin-2-yl)amino)methyl)hexahydrocyclopenta[c]pyrrol-2(1H)-yl)methanone] | 70 |
| COc1c(F)cccc1C(=O)N1CCC[C@@H](C)[C@H]1CNc1ccc(C(F)(F)F)cn1 [Example A75, (3-Fluoro-2-methoxyphenyl)((2S,3R)-3-methyl-2-(((5-(trifluoromethyl)pyridin-2-yl)amino)methyl)piperidin-1-yl)methanone] | 1300 |
| Cc1nc(C(=O)N2CCCC3CN(c4nc5ccc(Cl)cc5o4)CC32)c(-c2ccc(F)cc2)s1 (stereo not drawn) [Example A76, (6-(6-Chlorobenzo[d]oxazol-2-yl)octahydro-1H-pyrrolo[3,4-b]pyridin-1-yl)(5-(4-fluorophenyl)-2-methylthiazol-4-yl)methanone] | > 1000 |
| Cc1nc(C(=O)N2CCCC3CN(c4ccc(C(F)(F)F)cn4)CC32)c(-c2ccc(F)cc2)s1 (stereo not drawn) [Example A77, (5-(4-Fluorophenyl)-2-methylthiazol-4-yl)(6-(5-(trifluoromethyl)pyridin-2-yl)octahydro-1H-pyrrolo[3,4-b]pyridin-1-yl)methanone] | > 1000 |
| Cc1nc(C(=O)N2CCC[C@@H](C)[C@H]2CNc2ccc(C(F)(F)F)cn2)c(-c2cccc(F)c2)s1 [Example A109, (5-(3-Fluorophenyl)-2-methylthiazol-4-yl)((2S,3R)-3-methyl-2-(((5-(trifluoromethyl)pyridin-2-yl)amino)methyl)piperidin-1-yl)methanone] | < 10 |
| Cc1ccc(-c2cnn(C)c2)c(C(=O)N2CCC[C@@H](C)[C@H]2COc2ccc(C(F)(F)F)cn2)c1 [Example A114, ((2S,3R)-3-Methyl-2-(((5-(trifluoromethyl)pyridin-2-yl)oxy)methyl)piperidin-1-yl)(5-methyl-2-(1-methyl-1H-pyrazol-4-yl)phenyl)methanone] | > 1000 |

Continued, values first:

| IC50 [nM] | SMILES |
| --- | --- |
| 11 | Cc1ccc(-c2cnn(C)c2)c(C(=O)N2CCC[C@@H](C)[C@H]2CNc2ccc(F)cn2)c1 [Example A44, ((2S,3R)-2-(((5-Fluoropyridin-2-yl)-amino)methyl)-3-methylpiperidin-1-yl)(5-methyl-2-(1-methyl-1H-pyrazol-4-yl)phenyl)methanone] |
| 500 | Cc1ccc(NC[C@@H]2[C@H](C)CCCN2C(=O)c2cc(C)ccc2-c2cnn(C)c2)nc1 [Example A49, ((2S,3R)-3-Methyl-2-(((5-methylpyridin-2-yl)amino)methyl)piperidin-1-yl)(5-methyl-2-(1-methyl-1H-pyrazol-4-yl)phenyl)methanone] |
| 230 | Cc1ccc(-c2ccnn2C)c(C(=O)N2CCC[C@@H](C)[C@H]2CNc2nc3cc(Cl)ccc3o2)c1 [Example A50, ((2S,3R)-2-(((5-Chlorobenzo[d]oxazol-2-yl)amino)methyl)-3-methylpiperidin-1-yl)(5-methyl-2-(1-methyl-1H-pyrazol-5-yl)phenyl)methanone] |
| > 1000 | Cc1ccc(-n2cnc(C(F)(F)F)n2)c(C(=O)N2CCC[C@@H](C)[C@H]2CNc2ccc(C#N)cn2)c1 [Example A51, 6-((((2S,3R)-3-Methyl-1-(5-methyl-2-(3-(trifluoromethyl)-1H-1,2,4-triazol-1-yl)benzoyl)piperidin-2-yl)methyl)amino)nicotinonitrile] |
| 670 | Cc1ccc(-c2ccnc(C)c2)c(C(=O)N2CCC[C@@H](C)[C@H]2CNc2ccc(F)cn2)c1 [Example A53, ((2S,3R)-2-(((5-Fluoropyridin-2-yl)amino)methyl)-3-methylpiperidin-1-yl)(5-methyl-2-(2-methylpyridin-4-yl)phenyl)methanone] |
| 230 | Cc1ccc(-c2ccccn2)c(C(=O)N2CCC[C@@H](C)[C@H]2CNc2ccc(F)cn2)c1 [Example A58, ((2S,3R)-2-(((5-Fluoropyridin-2-yl)amino)methyl)-3-methylpiperidin-1-yl)(5-methyl-2-(pyridin-2-yl)phenyl)methanone] |
| 1100 | Cc1ccc(-c2ccnn2C)c(C(=O)N2CCC[C@@H](C)[C@H]2CNc2ccc(F)cn2)c1 [Example A61, ((2S,3R)-2-(((5-Fluoropyridin-2-yl)amino)methyl)-3-methylpiperidin-1-yl)(5-methyl-2-(1-methyl-1H-pyrazol-5-yl)phenyl)methanone] |
| > 1000 | Cc1ccc(-n2cnc(C(F)(F)F)n2)c(C(=O)N2CCC[C@@H](C)[C@H]2CNc2nc3cc(Cl)ccc3o2)c1 [Example A64, ((2S,3R)-2-(((5-Chlorobenzo[d]oxazol-2-yl)amino)methyl)-3-methylpiperidin-1-yl)(5-methyl-2-(3-(trifluoromethyl)-1H-1,2,4-triazol-1-yl)phenyl)methanone] |
| 21 | Cc1ccc(-n2nccn2)c(C(=O)N2CC3CCCC3C2CNc2ccc(C(F)(F)F)cn2)c1 (stereo not drawn) [Example A69, (5-Methyl-2-(2H-1,2,3-triazol-2-yl)phenyl)(1-(((5-(trifluoromethyl)pyridin-2-yl)amino)methyl)hexahydrocyclopenta[c]pyrrol-2(1H)-yl)methanone] |
| 4 | Cc1ccc(-n2nccn2)c(C(=O)N2CCC[C@@H](C)[C@H]2CNc2nc3ccccc3o2)c1 [Example A180, ((2S,3R)-2-((Benzo[d]oxazol-2-ylamino)methyl)-3-methylpiperidin-1-yl)(5-methyl-2-(2H-1,2,3-triazol-2-yl)phenyl)methanone] |

Same assay, conditions: Table 2; CHO-OX1 cells, EC90 of OXA; read-out: IC50 Bioactivity OX1

| IC50 [nM] | SMILES |
| --- | --- |
| 6 | O=C(NC[C@@H]1C[C@H](F)CN1C(=O)c1ccccc1-c1ccccc1)c1cccc2cccnc12 [Example 5, N-(((2S,4S)-1-(Biphenylcarbonyl)-4-fluoropyrrolidin-2-yl)methyl)quinoline-8-carboxamide] |
| 30 | O=C1C[C@@H](CNC(=O)c2cccc3cccnc23)N(C(=O)c2ccccc2-c2ccccc2)C1 [Example 6, (S)—N-((1-(Biphenylcarbonyl)-4-oxopyrrolidin-2-yl)methyl)quinoline-8-carboxamide] |
| 35 | O=C(NC[C@@H]1C[C@@H](F)CN1C(=O)c1ccccc1-c1ccccc1)c1cccc2cccnc12 [Example 128, N-(((2S,4R)-1-(Biphenylcarbonyl)-4-fluoropyrrolidin-2-yl)methyl)quinoline-8-carboxamide] |
| 6 | Cc1nc(-c2ccccc2)c(C(=O)N2CC[C@H](O)[C@H]2CNC(=O)c2cccc3cccnc23)s1 [Example 130, N-(((2R,3S)-3-Hydroxy-1-(2-methyl-4-phenylthiazole-5-carbonyl)pyrrolidin-2-yl)methyl)quinoline-8-carboxamide] |
| 53 | CC(=O)O[C@H]1C[C@@H](CNC(=O)c2cccc3cccnc23)N(C(=O)c2ccccc2-c2ccccc2)C1 [Example 131, (3S,5S)-1-([1,1′-Biphenyl]-2-carbonyl)-5-((quinoline-8-carboxamido)methyl)pyrrolidin-3-yl acetate] |
| 230 | Cc1nc(-c2ccccc2)c(C(=O)N2CCC(=O)[C@H]2CNC(=O)c2cccc3cccnc23)s1 [Example 132, (R)—N-((1-(2-Methyl-4-phenylthiazole-5-carbonyl)-3-oxopyrrolidin-2-yl)methyl)quinoline-8-carboxamide] |
| 12 | Cc1nc(-c2ccccc2)c(C(=O)N2CCC(F)(F)[C@H]2CNC(=O)c2cccc3cccnc23)s1 [Example 133, (R)—N-((3,3-Difluoro-1-(2-methyl-4-phenylthiazole-5-carbonyl)pyrrolidin-2-yl)methyl)quinoline-8-carboxamide] |
| 5 | Cc1nc(-c2ccccc2)c(C(=O)N2CC[C@@H](O)C[C@H]2CNC(=O)c2cccc3cccnc23)s1 [Example 134, N-(((2S,4R)-4-Hydroxy-1-(2-methyl-4-phenylthiazole-5-carbonyl)piperidin-2-yl)methyl)quinoline-8-carboxamide] |

| SMILES | IC50 [nM] |
| --- | --- |
| O=C(NCC1CCC(F)CN1C(=O)c1ccccc1-c1ccccc1)c1cccc2cccnc12 (single isomer, unassigned) [Example 37, N-((1-(Biphenylcarbonyl)-5-fluoropiperidin-2-yl)methyl)quinoline-8-carboxamide] | 1 |
| O=C(NCC1CCC(F)CN1C(=O)c1ccccc1-c1ccccc1)c1cccc2cccnc12 (single isomer, unassigned) [Example 38, N-((1-(Biphenylcarbonyl)-5-fluoropiperidin-2-yl)methyl)quinoline-8-carboxamide] | 4 |
| Cc1nc(-c2ccccc2)c(C(=O)N2CC3CCCCC3C2CNC(=O)c2cccc3cccnc23)s1 (single isomer, unassigned) [Example 65] | > 2000 |
| Cc1nc(C(=O)N2CC3CCCCC3C2CNC(=O)c2cccc3occc23)c(-c2ccccc2)s1 (single isomer, unassigned) [Example 70] | 170 |
| Cc1nc(C(=O)N2CC3CCCCC3C2CNC(=O)c2cccc3occc23)c(-c2ccccc2)s1 (single isomer, unassigned) [Example 71] | 40 |
